Data as given in ChEMBL document CHEMBL1128945, “Peptide inhibitors of IKB protease: Modification of the C-termini of Z-LLF-CHO” (Bioorg Med Chem Lett, 1996).
Square brackets hold non-standard residues; d marks the D form. Peptide text beside a SMILES is read from it. * marks the point of attachment. 1Nal = N[C@@H](Cc1cccc2ccccc12)C(=O)O; 2Nal = N[C@@H](Cc1ccc2ccccc2c1)C(=O)O; Cbz = O=C(OCc1ccccc1)*

Key:
[1] = test system: Jurkat; assay: Ability to decrease IL-8 levels in human Jurkat T-cells; assay type: functional, cell-based
[2] = Compound was evaluated for its ability to inhibit activation of NFkB protease stably expressed in human Jurkat T-cells; assay type: cell-based
[3] = test system: Jurkat; assay: Ability to decrease IL-2 levels in human Jurkat T-cells; assay type: functional, cell-based

IC50 [1] [µM]	IC50 [2] [µM]	IC50 [3] [µM]	Compound
2	2	0.9	CC(C)CC(NC(=O)OCc1ccccc1)C(=O)NC(CC(C)C)C(=O)NC(C=O)Cc1ccccc1 (stereo not drawn) (Cbz-Leu-Leu-Phe-aldehyde; configuration not given here)
–	20	–	CC(C)C[C@H](NC(=O)OCc1ccccc1)C(=O)N[C@@H](CC(C)C)C(=O)N[C@@H](Cc1ccccc1)C(=O)C(=O)C(=O)OCc1ccccc1
–	> 30	–	CC(C)C[C@H](NC(=O)OCc1ccccc1)C(=O)N[C@@H](CC(C)C)C(=O)N[C@@H](Cc1ccccc1)C(=O)Nc1ccc(C(F)(F)F)cc1
–	> 10	–	CC(=O)c1cccc(NC(=O)[C@H](CC(C)C)NC(=O)[C@H](CC(C)C)NC(=O)OCc2ccccc2)c1
–	> 30	–	CON(C)C(=O)[C@H](Cc1ccccc1)NC(=O)[C@H](CC(C)C)NC(=O)[C@H](CC(C)C)NC(=O)OCc1ccccc1 (stereo in doubt; 4b(D))
–	> 30	–	CC(=O)[C@H](Cc1ccccc1)NC(=O)[C@H](CC(C)C)NC(=O)[C@H](CC(C)C)NC(=O)OCc1ccccc1
–	3	–	CC(C)C[C@H](NC(=O)[C@H](Cc1cccc2ccccc12)NC(=O)[C@H](Cc1ccc2ccccc2c1)NC(=O)OCc1ccccc1)C(=O)O (Cbz-[2Nal]-[1Nal]-Leu-OH)
–	18	–	CON(C)C(=O)[C@H](Cc1ccccc1)NC(=O)[C@H](CC(C)C)NC(=O)[C@H](CC(C)C)NC(=O)OCc1ccccc1 (stereo in doubt; 4a(L))
–	> 30	–	CC(C)C[C@H](NC(=O)OCc1ccccc1)C(=O)N[C@@H](CC(C)C)C(=O)N[C@@H](Cc1ccccc1)C(=O)C(F)(F)C(F)(F)F
